Our source for the Activity, DC50 and IC50 values is ChEMBL document CHEMBL6127007, “Development of visible-light-activatable photocaged PROTACs” (Eur J Med Chem, 2024).

Data set [1] has as its target T1, Protein cereblon/Bromodomain-containing protein 4 (Homo sapiens, UniProt O60885+Q96SW2). The data set can be described thus: Photocaged-PROTAC activity at CRBN/BRD4 in human Ramos cells assessed as Brd4 protein degradation at 0.03 to 10 uM pre-incubated for 2 hrs under dark followed by 365 nm UV light irradiation for 3 mins and measured after 12 hrs by Western blot analysis. The following applies: dose 0.03-10 µM. The data set is classed as cell-based.

In data set [2] the target is T1, Protein cereblon/Bromodomain-containing protein 4. Briefly: Photocaged-PROTAC activity at CRBN/BRD4 in human Ramos cells assessed as Brd4 protein degradation at 0.03 to 10 uM incubated for 12 hrs under dark by Western blot analysis. The data set is classed as cell-based. The following applies: dose 0.03-10 µM.
Data set [3] shares this target. Briefly: Photocaged-PROTAC activity at CRBN/BRD4 in human Ramos cells assessed as […] Brd4 protein degradation under dark condition pre-incubated for 12 hrs by Western blot analysis. The data set is classed as cell-based. In general terms: Immunoblotting shows a protein as a band on a membrane.
The target is the same in data set [4]. The data set can be described thus: Photocaged-PROTAC activity at CRBN/BRD4 in human Ramos cells assessed as […] Brd4 protein degradation pre-incubated for 2 hrs followed by UV light irradiation at 365 nM for 3 mins and measured after 12 hrs by Western blot analysis. The data set is classed as cell-based.
Data set [5] can be described thus: Photoactivation of the Photocaged-PROTAC assessed as uncaging rate measuring dBET1 release under visible light measured at 1 min by HPLC analysis.
Data set [6] concerns the target T1, Protein cereblon/Bromodomain-containing protein 4. Briefly: Photocaged-PROTAC activity at CRBN/BRD4 in human Ramos cells assessed as reduction in Brd4 protein level at 0.03 to 10 uM pre-incubated for 2 hrs followed by visible light irradiation at 405 nm for 3 mins and measured after 12 hrs by Western blot analysis. The data set is classed as cell-based. The following applies: dose 0.03-10 µM, time 14.0 hrs.

In data set [7] the test system is NAMALVA. Briefly: Antiproliferative activity against human NAMALVA cells assessed as reduction in cell viability upto 10 uM measured after 72 hrs by CellTiter-Glo luminescent assay. The data set is classed as functional, cell-based.
Data set [8] concerns NAMALVA. The data set can be described thus: Antiproliferative activity against human NAMALVA cells assessed as reduction in cell viability pre-incubated for 2 hrs under dark followed by visible light irradiation for 3 mins at 405 nm and measured after 72 hrs under dark condition by CellTiter-Glo luminescent assay. The data set is classed as functional, cell-based. To be noted: light or radiation study. In general terms: Cellular ATP, detected with luciferase, serves as a proxy for viable cell number.

Data set [9] has as its system NAMALVA. Briefly: Antiproliferative activity against human NAMALVA cells assessed as reduction in cell viability upto 10 uM measured after 72 hrs under dark condition by CellTiter-Glo luminescent assay. The data set is classed as functional, cell-based.
Data set [10] concerns the target T1, Protein cereblon/Bromodomain-containing protein 4. The data set can be described thus: Photocaged-PROTAC activity at CRBN/BRD4 in human Ramos cells assessed as […] Brd4 protein degradation pre-incubated for 2 hrs followed by visible light irradiation at 405 nM for 3 mins and measured after 12 hrs by Western blot analysis. The data set is classed as cell-based.

The target is the same in data set [11]. The data set can be described thus: Photocaged-PROTAC activity at CRBN/BRD4 in human Ramos cells assessed as reduction in Brd4 protein level at 0.03 to 10 uM pre-incubated for 2 hrs under dark followed by UV light irradiation at 3 mW/cm^2 for 3 mins and measured after 12 hrs by Western blot analysis. The data set is classed as cell-based. The following applies: dose 0.03-10 µM, time 14.0 hrs.

Data set [12] shares this target. Briefly: Photocaged-PROTAC activity at CRBN/BRD4 in human Ramos cells assessed as reduction in Brd4 protein level at 0.03 to 10 uM incubated for 12 hrs under dark by Western blot analysis. The data set is classed as cell-based. To be noted: dose 0.03-10 µM.
For data set [13] the target is unchanged. Briefly: Photocaged-PROTAC activity at CRBN/BRD4 in human Ramos cells assessed as Brd4 protein degradation upto 3 uM pre-incubated for 2 hrs under dark followed by 365 nm UV light irradiation for 3 mins and measured after 12 hrs by Western blot analysis. The data set is classed as cell-based. To be noted: time 14.0 hrs.
Data set [14] shares this target. The data set can be described thus: Photocaged-PROTAC activity at CRBN/BRD4 in human Ramos cells assessed as Brd4 protein degradation at 10000 nM incubated for 12 hrs under dark by Western blot analysis. The data set is classed as cell-based.
For data set [15] the target is unchanged. Briefly: Photocaged-PROTAC activity at CRBN/BRD4 in human Ramos cells assessed as Brd4 protein degradation at 30 nM pre-incubated for 2 hrs under dark followed by 365 nm UV light irradiation for 3 mins and measured after 12 hrs by Western blot analysis. The data set is classed as cell-based. The following applies: time 14.0 hrs.

Activity calls are given as the source filed them. The rule behind the calls is not given here.

T1 sequence (Q96SW2 whole entry, looked up, other chains not shown): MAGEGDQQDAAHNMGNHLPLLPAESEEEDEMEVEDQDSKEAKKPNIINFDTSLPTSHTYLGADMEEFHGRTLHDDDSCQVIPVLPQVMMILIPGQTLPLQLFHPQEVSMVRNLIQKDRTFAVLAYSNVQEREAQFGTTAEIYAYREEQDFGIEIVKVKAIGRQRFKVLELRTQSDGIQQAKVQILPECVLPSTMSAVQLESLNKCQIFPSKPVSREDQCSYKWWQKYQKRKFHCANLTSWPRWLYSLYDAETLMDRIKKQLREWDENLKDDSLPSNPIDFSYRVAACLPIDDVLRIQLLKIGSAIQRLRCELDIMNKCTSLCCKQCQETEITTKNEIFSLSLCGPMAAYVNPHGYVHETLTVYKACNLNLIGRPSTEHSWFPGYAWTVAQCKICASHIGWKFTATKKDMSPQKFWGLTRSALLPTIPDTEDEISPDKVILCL

As for `COc1cc(CN(C(=O)COCCOCCOCCOC(=O)C[C@@H]2N=C(c3ccc(Cl)cc3)c3c(sc(C)c3C)-n3c(C)nnc32)[C@H](C(=O)N2C[C@H](O)C[C@H]2C(=O)NCc2ccc(-c3scnc3C)cc2)C(C)(C)C)c([N+](=O)[O-])cc1OC`, the outcome in [1] and in [2] was inactive. The DC50 in data set [3] and in data set [4] was greater than 10000 nM each time.

As for `COc1cc(COC(=O)O[C@@H]2C[C@@H](C(=O)NCc3ccc(-c4scnc4C)cc3)N(C(=O)[C@@H](NC(=O)COCCOCCOCCOC(=O)C[C@@H]3N=C(c4ccc(Cl)cc4)c4c(sc(C)c4C)-n4c(C)nnc43)C(C)(C)C)C2)c([N+](=O)[O-])cc1OC`, the result in [5] was Active. Further, the outcome in data set [1] was Active. In addition, the DC50 in data set [3] and in data set [4] was less than 30 nM in each case.

Consider `Cc1sc2c(c1C)C(c1ccc(Cl)cc1)=N[C@@H](CC(=O)N(CCCCNC(=O)COc1cccc3c1C(=O)N(C1CCC(=O)NC1=O)C3=O)Cc1cc3oc4ccccc4c3cc1[N+](=O)[O-])c1nnc(C)n1-2` (some centres not stated), for which the result in data set [5] was Active. Besides, the outcome in data set [6] was Active. Further, the result in the data set with NAMALVA [7] was inactive. In addition, the IC50 – broadly, the point on the concentration scale where inhibition reaches its midpoint – in the data set with NAMALVA [8] is 287 nM; in the data set on NAMALVA [9] it was greater than 10000 nM. In addition, the DC50 (commonly the midpoint of the concentration-degradation curve) in data set [10] was 32 nM.

As for `Cc1sc2c(c1C)C(c1ccc(Cl)cc1)=N[C@@H](CC(=O)NCCCCNC(=O)COc1cccc3c1C(=O)N(C1CCC(=O)NC1=O)C3=O)c1nnc(C)n1-2` (some centres not stated), the IC50 with NAMALVA [8] was 317 nM.

With `Cc1sc2c(c1C)C(c1ccc(Cl)cc1)=N[C@@H](CC(=O)NCCCCNC(=O)COc1cccc3c1C(=O)N(C1CCC(=O)N(OCc4cc5oc6ccccc6c5cc4[N+](=O)[O-])C1=O)C3=O)c1nnc(C)n1-2` (some centres not stated), the result in data set [5] was Active. In data set [6], the result was Active. The IC50 is 741 nM with NAMALVA [8] and greater than 2350 nM with NAMALVA [9]. Moreover, the DC50 in data set [10] is 108 nM.

As for `CCN(Cc1cc(OC)c(OC)cc1[N+](=O)[O-])C(=O)c1sc2c(c1C)C(c1ccc(Cl)cc1)=N[C@@H](CC(=O)NCCCCNC(=O)COc1cccc3c1C(=O)N(C1CCC(=O)NC1=O)C3=O)c1nnc(C)n1-2` (some centres not stated), in data set [11], the result was Active. The figures for the DC50 in data set [3] and in data set [4] were greater than 10000 nM and 1980 nM, respectively.

Turning to `Cc1ncsc1-c1ccc(CNC(=O)[C@@H]2C[C@@H](O)CN2C(=O)[C@@H](NC(=O)COCCOCCOCCNC(=O)C[C@@H]2N=C(c3ccc(Cl)cc3)c3c(sc(C)c3C)-n3c(C)nnc32)C(C)(C)C)cc1`, the IC50 with NAMALVA [8] came out at 170 nM.

On to `COc1cc(CON2C(=O)CCC(N3C(=O)c4cccc(OCC(=O)NCCCCNC(=O)C[C@@H]5N=C(c6ccc(Cl)cc6)c6c(sc(C)c6C)-n6c(C)nnc65)c4C3=O)C2=O)c([N+](=O)[O-])cc1OC` (some centres not stated), for which, in data set [11], the outcome was Active. Moreover, in data set [12], the outcome was inactive. Besides, the values for the DC50 in [3] and in data set [4] were greater than 10000 nM and 148 nM, respectively.

`Cc1sc2c(c1C)C(c1ccc(Cl)cc1)=N[C@@H](CC(=O)N(CCCCNC(=O)COc1cccc3c1C(=O)N(C1CCC(=O)NC1=O)C3=O)C(C)c1cc3c(cc1[N+](=O)[O-])oc1ccccc13)c1nnc(C)n1-2` (some centres not stated): the outcome in [5] was Active. The result in [6] was Active. For the same molecule, in the data set on NAMALVA [7], the result was inactive. In addition, the IC50 with NAMALVA [8] was 291 nM; in the data set with NAMALVA [9], greater than 10000 nM. In addition, the DC50 in data set [10] stood at 65 nM.

In the case of `COc1cc(CN2C(=O)CCC(N3C(=O)c4cccc(OCC(=O)NCCCCNC(=O)C[C@@H]5N=C(c6ccc(Cl)cc6)c6c(sc(C)c6C)-n6c(C)nnc65)c4C3=O)C2=O)c([N+](=O)[O-])cc1OC` (some centres not stated), the result in data set [12] was inactive. Also, the DC50 is greater than 10000 nM in [3] and 2310 nM in data set [4].

Consider `Cc1ncsc1-c1ccc(CN(Cc2cc3c(cc2[N+](=O)[O-])oc2ccccc23)C(=O)[C@@H]2C[C@@H](O)CN2C(=O)[C@@H](NC(=O)COCCOCCOCCOC(=O)C[C@@H]2N=C(c3ccc(Cl)cc3)c3c(sc(C)c3C)-n3c(C)nnc32)C(C)(C)C)cc1`, for which the concentration for half-maximal inhibition (IC50) in the data set with NAMALVA [8] was found to be 140 nM; in the data set with NAMALVA [9], 1170 nM. For the same molecule, the DC50 in data set [10] was less than 30 nM. In data set [13], the outcome was Active.

Turning to `COc1cc(CN(Cc2ccc(-c3scnc3C)cc2)C(=O)[C@@H]2C[C@@H](O)CN2C(=O)[C@@H](NC(=O)COCCOCCOCCOC(=O)C[C@@H]2N=C(c3ccc(Cl)cc3)c3c(sc(C)c3C)-n3c(C)nnc32)C(C)(C)C)c([N+](=O)[O-])cc1OC`, the outcome in data set [5] was Active. The result in data set [1] and in data set [15] was Active. Further, the outcome in data set [14] was inactive. Also, the DC50 is greater than 10000 nM in data set [3] and less than 30 nM in data set [4].

Consider `COc1cc(CN(CCCCNC(=O)C[C@@H]2N=C(c3ccc(Cl)cc3)c3c(sc(C)c3C)-n3c(C)nnc32)C(=O)COc2cccc3c2C(=O)N(C2CCC(=O)NC2=O)C3=O)c([N+](=O)[O-])cc1OC` (some centres not stated), for which the outcome in data set [12] was Active. Further, the values for the DC50 in data set [3] and in data set [4] were 59 nM and 55 nM, respectively.

In the case of `CCNC(=O)c1sc2c(c1C)C(c1ccc(Cl)cc1)=N[C@@H](CC(=O)NCCCCNC(=O)COc1cccc3c1C(=O)N(C1CCC(=O)NC1=O)C3=O)c1nnc(C)n1-2` (some centres not stated), the outcome in [11] was Active.

Take `Cc1sc2c(c1C)C(c1ccc(Cl)cc1)=N[C@@H](CC(=O)N(CCCCNC(=O)COc1cccc3c1C(=O)N(C1CCC(=O)NC1=O)C3=O)Cc1cc3c(cc1[N+](=O)[O-])oc1cc(N(C)C)ccc13)c1nnc(C)n1-2` (some centres not stated): in data set [5], the outcome was Active. In addition, the result in data set [6] was Active. The result with NAMALVA [7] was inactive. Further, the IC50 in the data set on NAMALVA [8] was 476 nM; with NAMALVA [9], greater than 10000 nM. The DC50 in data set [10] was 62 nM.
